Literature values in patent US20250032488A1, “METHODS OF TREATMENT USING LOU064” (NOVARTIS AG, priority 2021, published 2025).
Where “and” joins values, the source holds several entries; their conditions need not be identical. Equal entries are not always repeated. Where two headings read alike, the source gives them in different places.

Columns and labels:
[1] = 75 mg b.i.d., Phase II; cited from earlier work
[2] = higher dose treatment arms, phase IIa; cited from earlier work
[3] = human, in vivo; cited from earlier work

For `C=CC(=O)N1CCC(CNc2ncnc(N)c2-c2ccc(Oc3ccccc3)cc2)CC1` [evobrutinib], the Dose-limiting side effect [1] is listed as “dose-limiting liver enzyme elevations”.
For `C[C@H]1CN(C2COC2)CCN1c1ccc(Nc2cc(-c3ccnc(N4CCn5c(cc6c5CC(C)(C)C6)C4=O)c3CO)cn(C)c2=O)nc1` [fenebrutinib], the “Subjects with transient grade 3 elevations of ALT and/or AST” value [2] is listed as 8.3% and 6.3%.
In the case of `C=CC(=O)N1CCC[C@@H](n2c(=O)n(-c3ccc(Oc4ccccc4)cc3)c3c(N)nccc32)C1` [tolebrutinib], the Dose-limiting side effect [3] is given as “dose-limiting diarrhea”.
